This note sets out measurements from ChEMBL document CHEMBL1201862, “PubChem BioAssay data set” (2004).

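96-well plates; 48 h exposure; 5 concentrations. Endpoints by linear interpolation between flanking doses. Not reached: highest tested concentration assigned. Here, GI50 denotes the concentration required for 50% inhibition of growth.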 Calls of active or inactive are those of the source. No stated cut-off is given here; in the data, active = GI50 up to about 1.1 µM and inactive = higher. Some results are limits rather than exact numbers.

Some test systems named below: M14; IGROV-1; CAKI-1; UACC-257; RPMI-8226; SK-MEL-5; KM12; Malme-3M; HCT-116; SF-268; T47D; SF-295; HL-60; HCT-15; NCI-H23; SK-OV-3; A549; SNB-75; NCI/ADR-RES; SR.
What all share (test): inhibition of tumour cell growth, NCI panel, 48 h

For the compound `COC(=O)c1ccccc1C1CN=NC12Cc1cc(C)ccc1C2=O` (stereo not given), the GI50 with M14 is > 100 µM (inactive); with IGROV-1, > 100 µM (inactive); with CAKI-1, 84.1 µM (inactive); in the assay with UACC-257 it was > 100 µM (inactive); with RPMI-8226 it was > 100 µM (inactive); with SK-MEL-5 it was > 100 µM (inactive). The GI50 is 92.9 µM (inactive) with KM12; > 100 µM (inactive) in the assay with Malme-3M; > 100 µM (inactive) in the assay on HCT-116; > 100 µM (inactive) in the assay with SF-268; > 100 µM (inactive) with T47D; > 100 µM (inactive) in the assay on SF-295. Moreover, the GI50 with HL-60 is 92.7 µM (inactive); with HCT-15 it was above 100 µM; in the assay with NCI-H23, > 100 µM (inactive); with SK-OV-3 it was > 100 µM (inactive); in the assay on A549, > 100 µM (inactive); in the assay with SNB-75 it was 71 µM (inactive). The values for the GI50 with NCI/ADR-RES and in the assay on SR were 49.9 µM (inactive) and > 100 µM (inactive), respectively.
Regarding `NC(=O)/C(=C\c1ccncc1)c1cccc2ccccc12`, the GI50 was 55.1 µM (inactive) in the assay with M14; > 100 µM (inactive) with IGROV-1; > 100 µM (inactive) in the assay with CAKI-1; < 0.01 µM (active) in the assay on UACC-257; > 100 µM (inactive) in the assay on RPMI-8226; 56.9 µM (inactive) in the assay on SK-MEL-5. Moreover, the GI50 in the assay with KM12, with Malme-3M, in the assay on HCT-116, in the assay on SF-268, in the assay with T47D and in the assay with SF-295 was > 100 µM (inactive) throughout. For the same compound, the GI50 is > 100 µM (inactive) in the assay with HL-60; above 100 µM in the assay on HCT-15; 91.6 µM (inactive) in the assay with NCI-H23; > 100 µM (inactive) in the assay with SK-OV-3; > 100 µM (inactive) in the assay with A549; > 100 µM (inactive) in the assay with SNB-75. In addition, the figures for the GI50 in the assay with NCI/ADR-RES and with SR were > 100 µM (inactive) and 53.3 µM (inactive), respectively.
As to `COC(=O)C1=C(O)C(C(=O)OC)[C@]2(O)[C@H](C(=O)OC)[C@H]1C[C@@H](c1ccc(Cl)cc1)[C@H]2C(=O)OC` (stereo not given in full), the GI50 with M14 is 4.72 µM (inactive); in the assay with IGROV-1 it was 14.5 µM (inactive); in the assay on CAKI-1, 7.73 µM (inactive); with UACC-257, 7.6 µM (inactive); with RPMI-8226, 4.06 µM (inactive); in the assay with SK-MEL-5, 6.41 µM (inactive). Besides, the GI50 is 11.5 µM (inactive) in the assay on KM12; 6.56 µM (inactive) in the assay on Malme-3M; 5.28 µM (inactive) with HCT-116; 6.79 µM (inactive) with SF-268; 6.58 µM (inactive) in the assay with T47D; 4.28 µM (inactive) with SF-295. Besides, the GI50 in the assay with HL-60 was 1.75 µM (inactive); in the assay with HCT-15, 4.59 µM; in the assay on NCI-H23, 7.18 µM (inactive); in the assay with SK-OV-3, 2.7 µM (inactive); in the assay on A549 it was 5.64 µM (inactive); in the assay with SNB-75 it was 13.6 µM (inactive). The figures for the GI50 in the assay with NCI/ADR-RES and in the assay on SR were 3.29 µM (inactive) and 4.17 µM (inactive), respectively.
Take `O=C1CCCC2=C1CC1=C(CCCC1=O)N2c1ccc(-c2ccccc2)cc1`: the GI50 in the assay with M14, with IGROV-1, in the assay on CAKI-1, with UACC-257, in the assay on RPMI-8226 and in the assay on SK-MEL-5 was > 100 µM (inactive) each time. For the same compound, the GI50 is > 100 µM (inactive) in the assay with KM12; > 100 µM (inactive) with Malme-3M; > 100 µM (inactive) with HCT-116; > 63.5 µM (inactive) in the assay with SF-268; > 100 µM (inactive) in the assay with T47D; > 100 µM (inactive) with SF-295. The GI50 in the assay on HL-60 was > 29.6 µM (inactive); in the assay with HCT-15, above 100 µM; in the assay with NCI-H23 it was > 100 µM (inactive); in the assay on SK-OV-3, > 76.9 µM (inactive); in the assay with A549 it was > 100 µM (inactive); with SNB-75, > 47.4 µM (inactive). Further, the GI50 in the assay on NCI/ADR-RES and in the assay with SR was > 100 µM (inactive) in each case.
